Patent US9809574B2, “Isoindoline or isoquinoline compounds, a process for their preparation and pharmaceutical compositions containing them” (LES LABORATOIRES SERVIER, priority 2013, dated 2017)
Where a name gives a salt, the structure may show the parent alone.

Columns and labels:
Bcl-2 protein = Bcl-2 protein (histag-Bcl-2, UniProtKB P10415) (Homo sapiens (Human), UniProt P10415); assay: Inhibition of Bcl-2 by the fluorescence polarisation technique; assay type: binding; conditions: fluorescence polarisation test; incubation for 2 hours; read-out: IC50 (nM) Bcl-2 FP
Source text: For partial inhibitors, the percentage fluorescence polarisation inhibition for a given concentration of the test compound is indicated.

[1] = tested on: RS4; 11 leukaemia cell line; assay: In vitro cytotoxicity, Microculture Tetrazolium Assay (MTT); assay type: cell-based; conditions: Homo sapiens, 11 cells exposed for 48 hours
Protocol: The cytotoxicity studies were carried out on the RS4; 11 leukaemia cell line and on H146 small Cell Lung Carcinoma cell line. The cells are distributed onto microplates and exposed to the test compounds for 48 hours. The cell viability is then quantified by a colorimetric assay, the Microculture Tetrazolium Assay (Cancer Res., 1987, 47, 939-942).

Chain of Bcl-2 protein (P10415 whole entry): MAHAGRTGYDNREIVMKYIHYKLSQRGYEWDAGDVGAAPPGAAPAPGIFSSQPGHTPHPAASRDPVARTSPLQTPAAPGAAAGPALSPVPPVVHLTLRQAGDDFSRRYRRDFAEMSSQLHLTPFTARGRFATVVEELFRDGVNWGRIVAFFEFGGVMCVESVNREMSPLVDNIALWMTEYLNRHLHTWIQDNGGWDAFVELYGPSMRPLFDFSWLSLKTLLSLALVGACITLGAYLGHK

SMILES | IC50 (Bcl-2 protein) | IC50 [1]
CN(C)C(=O)c1ccc(OC(=O)N2CCc3cc(-c4cc(C(=O)N(C)c5ccc(O)cc5)c5n4CCCC5)c(C(=O)N4Cc5ccccc5C[C@H]4CN4CCOCC4)cc3C2)cc1 [Example 142, 4-(Dimethylcarbamoyl)phenyl 6-{1-[(4-hydroxyphenyl)(methyl)carbamoyl]-5,6,7,8-tetrahydroindolizin-3-yl}-7-[(3S)-3-(morpholin-4-ylmethyl)-1,2,3,4-tetrahydroisoquinoline-2-carbonyl]-1,2,3,4-tetrahydroisoquinoline-2-carboxylate] | 5.5 nM | 53 nM
CCC(=O)N1Cc2cc(C(=O)N3Cc4ccccc4C[C@H]3CN3CCOCC3)c(-c3cc(C(=O)N(C)c4ccc(O)cc4)c4n3CCCC4)cc2C1 [Example 11, N-(4-Hydroxyphenyl)-N-methyl-3-{6-[(3S)-3-(morpholin-4-ylmethyl)-1,2,3,4-tetrahydroisoquinoline-2-carbonyl]-2-propanoyl-2,3-dihydro-1H-isoindol-5-yl}-5,6,7,8-tetrahydroindolizine-1-carboxamide hydrochloride] | 22 nM | 763 nM
Cc1c(C(=O)N(C)c2ccc(O)cc2)cc(-c2cc3c(cc2C(=O)N2Cc4ccccc4C[C@H]2CN2CCOCC2)CN(C(=O)Oc2ccc(Cl)c(Cl)c2)CC3)n1C [Example 573, 3,4-Dichlorophenyl 6-{4-[(4-hydroxyphenyl)(methyl)carbamoyl]-1,5-dimethyl-1H-pyrrol-2-yl}-7-[(3S)-3-(morpholin-4-ylmethyl)-1,2,3,4-tetrahydroisoquinoline-2-carbonyl]-1,2,3,4-tetrahydroisoquinoline-2-carboxylate] | 18 nM | 43 nM
CN(C(=O)c1cc(-c2cc3c(cc2C(=O)N2Cc4ccccc4C[C@H]2CN2CCOCC2)CN(C(=O)Cc2cccnc2)C3)n2c1CCCC2)c1ccc(O)cc1 [Example 42, N-(4-Hydroxyphenyl)-N-methyl-3-{6-[(3S)-3-(morpholin-4-ylmethyl)-1,2,3,4-tetrahydroisoquinoline-2-carbonyl]-2-[2-(pyridin-3-yl)acetyl]-2,3-dihydro-1H-isoindol-5-yl}-5,6,7,8-tetrahydroindolizine-1-carboxamide] | 38 nM | > 150 nM
C#Cc1ccc(OC(=O)N2CCc3cc(-c4cc(C(=O)N(C)c5ccc(O)cc5)c(C)n4C)c(C(=O)N4Cc5ccccc5C[C@H]4CN4CCOCC4)cc3C2)cc1 [Example 564, 4-Ethynylphenyl 6-{4-[(4-hydroxyphenyl)(methyl)carbamoyl]-1,5-dimethyl-1H-pyrrol-2-yl}-7-[(3S)-3-(morpholin-4-ylmethyl)-1,2,3,4-tetrahydroisoquinoline-2-carbonyl]-1,2,3,4-tetrahydroisoquinoline-2-carboxylate] | 4.5 nM | 3.3 nM

The next lines start with results.

IC50 (Bcl-2 protein) | SMILES | IC50 [1]
3.3 nM | C[C@@H]1Cc2ccccc2CN1C(=O)c1cc2c(cc1-c1cc(C(=O)N(C)c3ccc(O)cc3)c3n1CCCC3)CCN(C(=O)Cc1cccc(N3CCN(C)CC3)c1)C2 [Example 169, N-(4-Hydroxyphenyl)-N-methyl-3-{7-[(3R)-3-methyl-1,2,3,4-tetrahydroisoquinoline-2-carbonyl]-2-{2-[3-(4-methylpiperazin-1-yl)phenyl]acetyl}-1,2,3,4-tetrahydroisoquinolin-6-yl}-5,6,7,8-tetrahydroindolizine-1-carboxamide] | 3 nM
4 nM | Cc1c(C(=O)N(C)c2ccc(O)cc2)cc(-c2cc3c(cc2C(=O)N2Cc4ccccc4C[C@H]2CN2CCOCC2)CN(C(=O)/C=C/c2ccccc2)CC3)n1C [Example 131, N-(4-Hydroxyphenyl)-N,1,2-trimethyl-5-{7-[(3S)-3-(morpholin-4-ylmethyl)-1,2,3,4-tetrahydroisoquinoline-2-carbonyl]-2-[(2E)-3-phenylprop-2-enoyl]-1,2,3,4-tetrahydroisoquinolin-6-yl}-1H-pyrrole-3-carboxamide] | 11 nM
